Results taken from patent publication US6897227B2, “Prodrugs of proton pump inhibitors” (Winston Pharmaceuticals, Inc., priority 2002, dated 2005).

Tests used:
[1] = Solubility in phosphate buffered saline buffer of pH 7.4 at 37° C.; format: physicochemical; conditions: aqueous buffer, sodium salts, phosphate buffered saline buffer pH 7.4, read-out: Solubility at 37° C. Conc.
Protocol: The solubility of the sodium salts of certain exemplary compounds of the present invention in a phosphate buffered saline buffer of pH 7.4 (50 mM sodium phosphate, 10 mM KCl, 0.1 M NaCl) and also in a more acidic Britton Robinson buffer of pH 3 (40 mM acetic acid, 40 mM phosphoric acid, 40 mM boric acid, 36 mM NaOH, and 19.6 mg/ml KCl) was also evaluated. […] The tested compounds were much less soluble little in the Britton Robinson buffer of pH 3, but still more soluble than the prior art compounds (a) through (f). This is understandable in view of the fact that in the buffer of pH 7.4 the compounds of the invention form a sodium salt, whereas in the buffer of pH 3 the compounds are less soluble free carboxylic acids. Thus, a solution of a sodium or other pharmaceutically acceptable salt of the compounds of the invention, or stated in an other way the compounds of the invention at pH 7 or above are highly soluble and therefore suitable for administration by intravenous injection.

[2] = Stability in plasma at 37° C. (gradient HPLC-UV), rat plasma; format: in vitro ADME
Protocol: (§1) Exemplary test compounds (prodrugs) of the invention were incubated in plasma at 37° C., and the concentration of the compounds and also of the corresponding proton pump inhibitor compounds (PPI) were determined by a gradient HPLC-UV method. Although the half-lives of test compounds in plasma varies depending on their structure, nevertheless it is apparent that in plasma the compounds of the invention are converted into the corresponding proton pump inhibitor at a rate faster than the hydrolysis rate of the compound at neutral or near neutral pH.

[3] = Stability in plasma at 37° C. (gradient HPLC-UV), human plasma; format: in vitro ADME
Protocol: as §1

[4] = system: histamine and carbachol-stimulated gastric acid secretion; assay: Inhibition of gastric acid secretion of the conscious male rat, oral administration; format: in vivo, rat (Sprague-Dawley); conditions: sodium salt, read-out: % inhibition of gastric acid secretion between 3-5 hours after administration; for inhibition in vivo at 20 µmol/kg: 20 μmole/kg; for inhibition in vivo at 40 µmol/kg: 40 μmole/kg; for inhibition in vivo at 10 µmol/kg: 10 μmole/kg
Protocol: Male rats (the Sprague-Dawley strain) were used in this experiment. OMEPRAZOLE sodium salt or LANSOPRAZOLE sodium salt (20 mg) was suspended in 10 ml of 0.1 N NaHCO3. 40 mg of each of the sodium salts of Compound 1, Compound 2, Compound 3, Compound 4, Compound 6 Compound 9, Compound 12, mixture (1:1) of Compound 16 and 17, mixture (1:1) of Compound 18 and 19, mixture (1:1) of Compound 20 and 21, mixture (1:1) of Compound 22 and 23, Compound 27, mixture (1:1) of Compound 34 and 35, and Compound 36 were dissolved in 10 ml of 50 mM sodium phosphate buffer, pH 7.4. The doses administered to the rats were as follows (μmole per kg body weight of the rat): OMEPRAZOLE (10 μmole/kg), LANSOPRAZOLE (10 μmole/kg), Compound 120 μmole/kg, Compound 2 40 μmole/kg, Compound 320 μmole/kg, Compound 420 μmole/kg, Compound 620 μmole/kg, Compound 940 μmole/kg, Compound 1240 μmole/kg, mixture (1:1) of Compound 16 and 17 40 μmole/kg, mixture (1:1) of Compound 18 and 19 40 μmole/kg, mixture (1:1) of Compound 20 and 21 40 μmole/kg, mixture (1:1) of Compound 22 and 23 40 μmole/kg, Compound 27 40 μmole/kg, mixture (1:1) of Compound 34 and 35 40 μmole/kg, and Compound 3640 μmole/kg. These drug solutions were orally administered.
(§2) 3 hours after administration the abdomen of the rat was incised and the pylorus was ligated under light ether anethesia. Histamine (30 mg/kg) and carbachol (30 μg/kg) were subcutaneously injected for acid stimulation. Immediately the abdomen was closed. Two hours later, the esophagus was ligated and the stomach was removed. The gastric juice was collected and acid output was quantified by titration using 0.1 N NaOH solution. As a control experiment, 1 ml of 50 mM phosphate buffer (pH 7.4) solution was orally administrated without any prodrug or proton pump inhibitory drug. Acid output was quantified by same method as described above, showing maximum histamine and carbachol-stimulated gastric acid secretion. Percentage inhibition was calculated from the fractional responses elicited by the test compound and a control experiment.

gastric acid secretion = assay: Inhibition of gastric acid secretion in rat, intravenous administration; format: in vivo
Protocol: as §2
Inhibition of gastric acid secretion after intravenous administration of compounds of the invention was also examined. Lansoprazole sodium salt (20 mg) was dissolved in 40% hydroxypropyl-beta-cyclodextrin. The compounds of the invention used in this experiment were dissolved in phosphate buffered saline solution of pH 7.4. Each compound was injected intravenously at a dose of 5 μmole/kg or 10 μmole/kg (μmole per kg body weight of rat) as indicated in Table 4 below. Between 2 to 4 hours after injection gastric juice was collected, and the percentage of inhibition was determined as described above.

[5] = Stability in Britton Robinson buffers (hydrolysis of prodrug to PPI, HPLC); conditions: Britton Robinson buffer, pH 7
Protocol: The stability of Compounds 1, 2, 3, 4 and 5 of the invention in aqueous solution (0.1 mg/mL) was investigated in Britton Robinson buffers of pH 3, pH 7, and pH 9, respectively. A solution of 0.1 mg/mL concentration of each compound in each buffer was prepared and the solutions were stored at 37° C. for 1 h and then the concentrations of test compounds were determined by HPLC.

[6] = Aqueous solubility (water / distilled water); format: physicochemical; conditions: free carboxylic acids
Excerpt: A further significant advantage of the proton pump inhibitor prodrugs of the present invention relative to the proton pump inhibitor prodrugs disclosed in U.S. Pat. No. 6,093,734, 6,559,167 and PCT Publication WO 00109498 and to all other prior art is their increased solubility.

solubility [1] | half-life [2] | half-life [3] | SMILES | also measured
> 30 mg/mL | 14 min | 12 min | Cc1c(OCC(F)(F)F)ccnc1C[S+]([O-])c1nc2ccccc2n1S(=O)(=O)c1cccc(C(=O)O)c1 (centres unmarked) [Compound 1, 3-{2-[3-Methyl-4-(2,2,2-trifluoro-ethoxy)-pyridin-2-ylmethanesulfinyl]-benzimidazole-1-sulfonyl}benzoic acid] | inhibition in vivo at 20 µmol/kg [4]: 81.9 ± 7.1%; % inhibition of gastric acid secretion between 2-4 hours after i.v. administration (gastric acid secretion; 5 μmole/kg): 83.7 ± 10.1%; % inhibition of gastric acid secretion between 2-4 hours after i.v. administration (gastric acid secretion; 10 μmole/kg): 90.6 ± 2.1%; half-life at 0.1 mg/mL [5]: > 50 h
> 50 mg/mL | 81 min | 10 min | COc1ccc(S(=O)(=O)n2c([S+]([O-])Cc3nccc(OCC(F)(F)F)c3C)nc3ccccc32)cc1C(=O)[O-].[Na+] (centres unmarked) [Compound 3, 2-methoxy-5-{2-[3-methyl-4-(2,2,2-trifluoro-ethoxy)-pyridin-2-ylmethanesulfinyl]benzimidazole-1-sulfonyl}-benzoic acid sodium salt] | inhibition in vivo at 20 µmol/kg [4]: 84.9 ± 13.6%; half-life at 0.1 mg/mL [5]: > 50 h
– | 98 min | 60 min | CCC(Oc1ccc(S(=O)(=O)n2c([S+]([O-])Cc3nccc(OCC(F)(F)F)c3C)nc3ccccc32)cc1)C(=O)[O-].[Na+] (centres unmarked) [Compound 4 Na salt, 2-(4-{2-[3-methyl-4-(2,2,2-trifluoro-ethoxy)-pyridin-2-ylmethanesulfinyl]-benzimidazole-1-sulfonyl}phenoxy)butyric acid sodium salt] | –
> 30 mg/mL | 31 min | – | Cc1cc(OCC(=O)[O-])cc(C)c1S(=O)(=O)n1c([S+]([O-])Cc2nccc(OCC(F)(F)F)c2C)nc2ccccc21.[Na+] (centres unmarked) [Compound 5] | half-life at 0.1 mg/mL [5]: > 50 h
– | 52 min | 60 min | Cc1cc(OCC(=O)NCCCCCC(=O)[O-])cc(C)c1S(=O)(=O)n1c([S+]([O-])Cc2nccc(OCC(F)(F)F)c2C)nc2ccccc21.[Na+] (centres unmarked) [Compound 6, 6-[2-(3,5-Dimethyl-4-{2-[3-methyl-4-(2,2,2-trifluoro-ethoxy)-pyridin-2-ylmethanesulfinyl]-benzimidazole-1-sulfonyl}-phenoxy)acetylamino]hexanoic acid sodium salt] | inhibition in vivo at 20 µmol/kg [4]: 53.5 ± 18.3%
> 30 mg/mL | – | – | COCCCOc1ccnc(C[S+]([O-])c2nc3ccccc3n2S(=O)(=O)c2ccc(OCC(=O)[O-])cc2)c1C.[Na+] (centres unmarked) [Compound 8, (4-{2-[4-(3-Methoxy-propoxy)-3-methyl-pyridin-2-ylmethanesulfinyl]-benzimidazole-1-sulfonyl}-phenoxy)-acetic acid sodium salt] | –
> 30 mg/mL | – | – | COc1ccc2c(c1)nc([S+]([O-])Cc1ncc(C)c(OC)c1C)n2S(=O)(=O)c1ccc(OCC(=O)[O-])cc1.[Na+] (centres unmarked) [Compound 9, {4-[5-methoxy-2-(4-methoxy-3,5-dimethyl-pyridin-2-ylmethanesulfinyl)-benzimidazole-1-sulfonyl]-phenoxy}-acetic acid sodium salt] | solubility [6]: > 0.1 mg/mL; inhibition in vivo at 40 µmol/kg [4]: 74.4 ± 25.1%
– | – | – | COc1ccc2nc([S+]([O-])Cc3ncc(C)c(OC)c3C)n(S(=O)(=O)c3ccc(OCC(=O)[O-])cc3)c2c1.[Na+] (centres unmarked) [Compound 10, {4-[6-methoxy-2-(4-methoxy-3,5-dimethyl-pyridin-2-ylmethanesulfinyl)-benzimidazole-1-sulfonyl]-phenoxy}-acetic acid sodium salt] | % inhibition of gastric acid secretion between 2-4 hours after i.v. administration (gastric acid secretion; 5 μmole/kg): 18.3 ± 11.9%
– | 53 min | 14 min | Cc1c(OCC(F)(F)F)ccnc1C[S+]([O-])c1nc2ccccc2n1S(=O)(=O)c1ccc(OCC(=O)NCCCC(=O)[O-])cc1C(C)C.[Na+] (centres unmarked) [Compound 11] | –
> 50 mg/mL | 78 min | 51 min | Cc1c(OCC(F)(F)F)ccnc1C[S+]([O-])c1nc2ccccc2n1S(=O)(=O)c1ccc(OCC(=O)[O-])c(OCC(=O)[O-])c1.[Na+].[Na+] (centres unmarked) [Compound 12, (2-Carboxymethoxy-4-{2-[3-methyl-4-(2,2,2-trifluoro-ethoxy)-pyridin-2-ylmethanesulfinyl]-benzimidazole-1-sulfonyl}-phenoxy)-acetic acid di-sodium salt] | inhibition in vivo at 40 µmol/kg [4]: 82.8 ± 9.6%; % inhibition of gastric acid secretion between 2-4 hours after i.v. administration (gastric acid secretion; 5 μmole/kg): 89.2 ± 6.8%; % inhibition of gastric acid secretion between 2-4 hours after i.v. administration (gastric acid secretion; 10 μmole/kg): 92.6 ± 2.9%
– | 14 min | – | Cc1ccc(C(=O)[O-])cc1S(=O)(=O)n1c([S+]([O-])Cc2nccc(OCC(F)(F)F)c2C)nc2ccccc21.[Na+] (centres unmarked) [Compound 27, 3-{2-[3-Methyl-4-(2,2,2-trifluoro-ethoxy)-pyridin-2-yl-methanesulfinyl]-benzimidazole-1-sulfonyl}-4-methylbenzoic acid sodium salt] | inhibition in vivo at 40 µmol/kg [4]: 96.7 ± 1.3%
– | 19 min | – | COc1ccc(S(=O)(=O)n2c([S+]([O-])Cc3nccc(OCC(F)(F)F)c3C)nc3ccccc32)cc1CCC(=O)[O-].[Na+] (centres unmarked) [Compound 36, 3-[2-Methoxy-5-{2-(3-methyl-4-(2,2,2-trifluoroethoxy)pyridin-2-yl-methanesulfinyl)-benzimidazole-1-sulfonyl}phenyl]propionic acid sodium salt] | inhibition in vivo at 40 µmol/kg [4]: 89.8 ± 6.8%
– | 317 min | – | Cc1cc(OCC(=O)[O-])cc(C(C)C)c1S(=O)(=O)n1c([S+]([O-])Cc2nccc(OCC(F)(F)F)c2C)nc2ccccc21.[Na+] (centres unmarked) [Compound 39, 4-[2-{3-Methyl-4-(2,2,2-trifluoroethoxy)pyridin-2-yl-methanesulfinyl}-benzimidazole-1-sulfonyl]-3-isopropyl-5-methylphenoxyacetic acid sodium salt] | –
– | – | – | Cc1c(OCC(F)(F)F)ccnc1C[S+]([O-])c1nc2ccccc2[nH]1 (centres unmarked) [LANSOPRAZOLE, 2-[3-methyl-4-(2,2,2-trifluoroethoxy)pyridin-2-yl-methanesulfinyl]-1H-benzimidazole, reference compound] | inhibition in vivo at 10 µmol/kg [4]: 67.6 ± 14.7%; % inhibition of gastric acid secretion between 2-4 hours after i.v. administration (gastric acid secretion; 5 μmole/kg): 91.5 ± 5.0%
– | – | – | COc1ccc2[nH]c([S+]([O-])Cc3ncc(C)c(OC)c3C)nc2c1 (centres unmarked) [OMEPRAZOLE, 5-methoxy-2-(4-methoxy-3,5-dimethyl-pyridin-2-yl-methanesulfinyl)-1H-benzimidazole, reference compound] | inhibition in vivo at 10 µmol/kg [4]: 54.6 ± 10.4%
